This passage reports relative viability results from the supplement of paper PMC10307832.

Assay in all cases: relative viability (nuclei count vs DMSO), 5 days (fraction); higher = more cells survive
Compound in the assay “XMD8-85 + Olaparib”: CN1CCN(CC1)C2=CC(=C(C=C2)NC3=NC=C4C(=N3)N(C5=CC=CC=C5C(=O)N4C)C)OC [XMD8-85] + O=C(c1cc(Cc2n[nH]c(=O)c3ccccc23)ccc1F)N1CCN(C(=O)C2CC2)CC1 [Olaparib] (partner 8 µM)
The essentials: (§1)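 Five library-drug doses in √10 steps were combined with a fixed anchor-drug dose, or a single drug was given alone, by pin tool to lung cancer cell lines in 1536-well plates the day after seeding. Nuclei were stained and counted after 5 days. Relative viability is the nuclei count in treated wells over that in vehicle wells, taken as the median of duplicate plates.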

Compound in the assay “4EGI-1 + Trametinib”: O=C(O)C(Cc1ccccc1[N+](=O)[O-])=NNc1nc(-c2ccc(Cl)c(Cl)c2)cs1 (mixture of isomers) [4EGI-1] + CC(=O)Nc1cccc(-n2c(=O)n(C3CC3)c(=O)c3c(Nc4ccc(I)cc4F)n(C)c(=O)c(C)c32)c1 [Trametinib] (partner 0.02 µM)
The method in brief: as §1

Compound in the assay “4EGI-1 + OSI-027”: O=C(O)C(Cc1ccccc1[N+](=O)[O-])=NNc1nc(-c2ccc(Cl)c(Cl)c2)cs1 (mixture of isomers) [4EGI-1] + COc1cccc2cc(-c3nc([C@H]4CC[C@H](C(=O)O)CC4)n4ncnc(N)c34)[nH]c12 [OSI-027] (partner 0.5 µM)
The essentials:
as §1

Compound in the assay “4EGI-1 + Crizotinib”: O=C(O)C(Cc1ccccc1[N+](=O)[O-])=NNc1nc(-c2ccc(Cl)c(Cl)c2)cs1 (mixture of isomers) [4EGI-1] + C[C@@H](Oc1cc(-c2cnn(C3CCNCC3)c2)cnc1N)c1c(Cl)ccc(F)c1Cl [Crizotinib] (partner 1 µM)
The method in brief: as §1

Take 201T: the relative viability with XMD8-85 + Olaparib (first compound 0.08 µM) came out at 0.889; with XMD8-85 + Olaparib (first compound 0.253 µM), 0.811; with XMD8-85 + Olaparib (first compound 0.8 µM) it was 0.886; in the assay with XMD8-85 + Olaparib (first compound 2.53 µM) it was 0.866; with XMD8-85 + Olaparib (first compound 8 µM), 0.73; in the assay with 4EGI-1 + Trametinib (first compound 0.5 µM) it was 0.714. The relative viability came out at 0.705 with 4EGI-1 + Trametinib (first compound 1.581 µM); 0.742 with 4EGI-1 + Trametinib (first compound 5 µM); 0.744 with 4EGI-1 + Trametinib (first compound 15.81 µM); 0.636 with 4EGI-1 + Trametinib (first compound 50 µM); 0.791 with 4EGI-1 + OSI-027 (first compound 0.5 µM); 0.622 in the assay with 4EGI-1 + OSI-027 (first compound 1.581 µM). Besides, the relative viability was determined as 0.824 with 4EGI-1 + OSI-027 (first compound 5 µM); 0.704 with 4EGI-1 + OSI-027 (first compound 15.81 µM); 0.656 with 4EGI-1 + OSI-027 (first compound 50 µM); 1.06 with 4EGI-1 + Crizotinib (first compound 0.5 µM); 0.98 in the assay with 4EGI-1 + Crizotinib (first compound 1.581 µM); 1.01 in the assay with 4EGI-1 + Crizotinib (first compound 5 µM). The relative viability with 4EGI-1 + Crizotinib (first compound 15.81 µM) was 1.01; with 4EGI-1 + Crizotinib (first compound 50 µM), 1.02.

As to HCC-827, the relative viability turned out to be 0.67 in the assay with XMD8-85 + Olaparib (first compound 0.08 µM); 0.714 with XMD8-85 + Olaparib (first compound 0.253 µM); 0.684 with XMD8-85 + Olaparib (first compound 0.8 µM); 0.739 with XMD8-85 + Olaparib (first compound 2.53 µM); 0.701 in the assay with XMD8-85 + Olaparib (first compound 8 µM); 0.575 with 4EGI-1 + Trametinib (first compound 0.5 µM). Also, the relative viability in the assay with 4EGI-1 + Trametinib (first compound 1.581 µM) is 0.458; with 4EGI-1 + Trametinib (first compound 5 µM) it was 0.611; in the assay with 4EGI-1 + Trametinib (first compound 50 µM), 0.505; with 4EGI-1 + OSI-027 (first compound 0.5 µM), 0.888; with 4EGI-1 + OSI-027 (first compound 1.581 µM) it was 0.629; with 4EGI-1 + OSI-027 (first compound 5 µM) it was 0.796. Further, the relative viability in the assay with 4EGI-1 + OSI-027 (first compound 50 µM) came to 0.719; in the assay with 4EGI-1 + Crizotinib (first compound 0.5 µM), 0.935; with 4EGI-1 + Crizotinib (first compound 1.581 µM), 0.819; with 4EGI-1 + Crizotinib (first compound 5 µM), 0.868; in the assay with 4EGI-1 + Crizotinib (first compound 50 µM), 0.685.

As for NCI-H838, the relative viability with XMD8-85 + Olaparib (first compound 0.08 µM) came to 0.796; with XMD8-85 + Olaparib (first compound 0.253 µM), 0.749; with XMD8-85 + Olaparib (first compound 0.8 µM), 0.898; with XMD8-85 + Olaparib (first compound 2.53 µM), 0.778; in the assay with XMD8-85 + Olaparib (first compound 8 µM) it was 0.279; with 4EGI-1 + Trametinib (first compound 0.5 µM), 0.694. Moreover, the relative viability is 0.483 with 4EGI-1 + Trametinib (first compound 1.581 µM); 0.512 in the assay with 4EGI-1 + Trametinib (first compound 5 µM); 0.506 with 4EGI-1 + Trametinib (first compound 15.81 µM); 0.141 with 4EGI-1 + Trametinib (first compound 50 µM); 0.419 with 4EGI-1 + OSI-027 (first compound 0.5 µM); 0.403 in the assay with 4EGI-1 + OSI-027 (first compound 5 µM). In addition, the relative viability with 4EGI-1 + OSI-027 (first compound 15.81 µM) was 0.362; in the assay with 4EGI-1 + OSI-027 (first compound 50 µM), 0.218; with 4EGI-1 + Crizotinib (first compound 0.5 µM), 0.843; with 4EGI-1 + Crizotinib (first compound 5 µM), 0.905; with 4EGI-1 + Crizotinib (first compound 15.81 µM), 0.706; with 4EGI-1 + Crizotinib (first compound 50 µM), 0.378.

With NCI-H1734, the relative viability in the assay with XMD8-85 + Olaparib (first compound 0.08 µM) worked out at 0.672; with XMD8-85 + Olaparib (first compound 0.253 µM), 0.616; in the assay with XMD8-85 + Olaparib (first compound 0.8 µM), 0.629; with XMD8-85 + Olaparib (first compound 8 µM), 0.508; with 4EGI-1 + Trametinib (first compound 0.5 µM), 0.73; with 4EGI-1 + Trametinib (first compound 1.581 µM), 0.521. Further, the relative viability with 4EGI-1 + Trametinib (first compound 5 µM) came out at 0.684; in the assay with 4EGI-1 + Trametinib (first compound 15.81 µM), 0.761; with 4EGI-1 + Trametinib (first compound 50 µM) it was 0.483; with 4EGI-1 + OSI-027 (first compound 0.5 µM), 0.698; with 4EGI-1 + OSI-027 (first compound 1.581 µM), 0.432; with 4EGI-1 + OSI-027 (first compound 5 µM), 0.618. Further, the relative viability with 4EGI-1 + OSI-027 (first compound 15.81 µM) was determined as 0.55; in the assay with 4EGI-1 + OSI-027 (first compound 50 µM), 0.23; with 4EGI-1 + Crizotinib (first compound 0.5 µM) it was 0.817; with 4EGI-1 + Crizotinib (first compound 1.581 µM) it was 0.695; with 4EGI-1 + Crizotinib (first compound 5 µM) it was 0.72; with 4EGI-1 + Crizotinib (first compound 15.81 µM) it was 0.605. The relative viability in the assay with 4EGI-1 + Crizotinib (first compound 50 µM) is 0.437.
